Measured values as given in patent publication US20230085307A1, “PYRIDAZINONE COMPOUND AND HERBICIDE” (NISSAN CHEMICAL CORPORATION, priority 2019, published 2023).

Key:
wild oat [1] = assay: Test Example 4: herbicidal effect by soil treatment (Table 19, symbol I); type: in vivo, wild oat (Avena fatua); conditions: amount of applied herbicide 320 g/ha
From the text: (§1) [Test Example 4] Herbicidal Effect Test by Soil Treatment
(§2) Sterilized diluvial soil was placed in a plastic box having a length of 21 cm, a width of 13 cm, and a depth of 7 cm. The seeds of each of southern crabgrass, green foxtail, barnyard grass, wild oat, blackgrass, Italian ryegrass, windgrass, velvetleaf, redroot pigweed, lambsquarters, chickweed, false cleavers, persian speedwell, corn, soybean, rice, wheat, beet, and rapeseed were sowed in a spot-like manner and covered with the soil having a thickness of about 1.5 cm. Subsequently, the emulsion agent of the compound of the present invention prepared according to Formulation Example 2 was diluted with water so as to achieve a predetermined herbicide amount, and the diluted emulsion agent was uniformly applied to the surface of the soil with a small-sized spray. The plastic box was placed in a greenhouse at 25° C. to 30° C. for growth of the plants. Three weeks after the herbicide application, the effect of the herbicide on each plant was evaluated according to the criteria of Test Example 1.

wild oat [2] = assay: Test Example 5: herbicidal effect by foliage application, plastic box (Table 20, symbol I); type: in vivo, wild oat (Avena fatua); conditions: evaluated three weeks after application
In short: (§3)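 Plants were sown into sterilized diluvial soil under about 1.5 cm cover and kept in a greenhouse at 25° C. to 30° C. Fourteen days on, foliage received an even spray of the diluted emulsion. Herbicidal or crop effect was judged three weeks afterwards.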

Chinese sprangletop = assay: Test Example 3: herbicidal effect by foliage application, Wagner pot (Table 18, symbol D); type: in vivo, chinese sprangletop (Leptochloa chinensis)
In short: (§4)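 Plants were sown in alluvial soil held under 0.1–0.5 cm standing water and grown 14 days in a greenhouse at 25–30 °C. An emulsifiable formulation, water-diluted to the set dose, was then sprayed onto the foliage, and effects were scored three weeks later using previously defined criteria.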

redroot pigweed [3] = assay: Test Example 4: herbicidal effect by soil treatment (Table 19, symbol N); type: in vivo, redroot pigweed (Amaranthus retroflexus); conditions: amount of applied herbicide 320 g/ha
From the text: as §1, §2

redroot pigweed [4] = assay: Test Example 5: herbicidal effect by foliage application, plastic box (Table 20, symbol N); type: in vivo, redroot pigweed (Amaranthus retroflexus); conditions: evaluated three weeks after application
In short: as §3

windgrass [5] = assay: Test Example 5: herbicidal effect by foliage application, plastic box (Table 20, symbol L); type: in vivo, windgrass (Apera spica-venti); conditions: evaluated three weeks after application
In short: as §3

barnyard grass [6] = assay: Test Example 5: herbicidal effect by foliage application, plastic box (Table 20, symbol H); type: in vivo, barnyard grass (Echinochloa crus-galli); conditions: evaluated three weeks after application
In short: as §3

lambsquarters [7] = assay: Test Example 4: herbicidal effect by soil treatment (Table 19, symbol O); type: in vivo, lambsquarters (Chenopodium album); conditions: amount of applied herbicide 320 g/ha
From the text: as §1, §2

southern crabgrass [8] = assay: Test Example 5: herbicidal effect by foliage application, plastic box (Table 20, symbol F); type: in vivo, southern crabgrass (Digitaria ciliaris); conditions: evaluated three weeks after application
In short: as §3

velvetleaf [9] = assay: Test Example 4: herbicidal effect by soil treatment (Table 19, symbol M); type: in vivo, velvetleaf (Abutilon theophrasti); conditions: amount of applied herbicide 320 g/ha
From the text: as §1, §2

windgrass [10] = assay: Test Example 4: herbicidal effect by soil treatment (Table 19, symbol L); type: in vivo, windgrass (Apera spica-venti); conditions: amount of applied herbicide 320 g/ha
From the text: as §1, §2

blackgrass [11] = assay: Test Example 4: herbicidal effect by soil treatment (Table 19, symbol J); type: in vivo, blackgrass (Alopecurus myosuroides); conditions: amount of applied herbicide 320 g/ha
From the text: as §1, §2

Italian ryegrass [12] = assay: Test Example 5: herbicidal effect by foliage application, plastic box (Table 20, symbol K); type: in vivo, Italian ryegrass (Lolium multiflorum); conditions: evaluated three weeks after application
In short: as §3

southern crabgrass [13] = assay: Test Example 4: herbicidal effect by soil treatment (Table 19, symbol F); type: in vivo, southern crabgrass (Digitaria ciliaris); conditions: amount of applied herbicide 320 g/ha
In short: (§5)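 In this soil treatment, the formulated compound reached the seeds only through the soil: seeds were buried about 1.5 cm deep in sterilized diluvial soil, then the diluted emulsion was sprayed over the surface. After three weeks at 25° C. to 30° C. in a greenhouse, effects were graded on criteria from an earlier test.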

barnyard grass [14] = assay: Test Example 4: herbicidal effect by soil treatment (Table 19, symbol H); type: in vivo, barnyard grass (Echinochloa crus-galli); conditions: amount of applied herbicide 320 g/ha
From the text: as §1, §2

chickweed [15] = assay: Test Example 4: herbicidal effect by soil treatment (Table 19, symbol P); type: in vivo, common chickweed (Stellaria media); conditions: amount of applied herbicide 320 g/ha
From the text: as §1, §2

persian speedwell = assay: Test Example 5: herbicidal effect by foliage application, plastic box (Table 20, symbol R); type: in vivo, Persian speedwell (Veronica persica); conditions: evaluated three weeks after application
In short: as §3

rice flat sedge = assay: Test Example 3: herbicidal effect by foliage application, Wagner pot (Table 18, symbol E); type: in vivo, rice flat sedge (Cyperus iria)
In short: as §4

Italian ryegrass [16] = assay: Test Example 4: herbicidal effect by soil treatment (Table 19, symbol K); type: in vivo, Italian ryegrass (Lolium multiflorum); conditions: amount of applied herbicide 320 g/ha
From the text: as §1, §2

barnyard grass [17] = assay: Test Example 3: herbicidal effect by foliage application, Wagner pot (Table 18, symbol H); type: in vivo, barnyard grass (Echinochloa crus-galli)
In short: as §4

green foxtail [18] = assay: Test Example 5: herbicidal effect by foliage application, plastic box (Table 20, symbol G); type: in vivo, green foxtail (Setaria viridis); conditions: evaluated three weeks after application
In short: as §3

chickweed [19] = assay: Test Example 5: herbicidal effect by foliage application, plastic box (Table 20, symbol P); type: in vivo, common chickweed (Stellaria media); conditions: evaluated three weeks after application
In short: as §3

lambsquarters [20] = assay: Test Example 5: herbicidal effect by foliage application, plastic box (Table 20, symbol O); type: in vivo, lambsquarters (Chenopodium album); conditions: evaluated three weeks after application
In short: as §3

green foxtail [21] = assay: Test Example 4: herbicidal effect by soil treatment (Table 19, symbol G); type: in vivo, green foxtail (Setaria viridis); conditions: amount of applied herbicide 320 g/ha
In short: as §5

velvetleaf [22] = assay: Test Example 5: herbicidal effect by foliage application, plastic box (Table 20, symbol M); type: in vivo, velvetleaf (Abutilon theophrasti); conditions: evaluated three weeks after application
In short: as §3

blackgrass [23] = assay: Test Example 5: herbicidal effect by foliage application, plastic box (Table 20, symbol J); type: in vivo, blackgrass (Alopecurus myosuroides); conditions: amount of applied herbicide 320 g/ha; foliage application after 14-day growth; evaluated three weeks after application
In short: as §3

[24] = foliage application, AAH 320 g/ha
[25] = amount of applied herbicide 320 g/ha
[26] = amount of applied herbicide 320 g/ha, foliage application after 14-day growth

For `CCCC(=O)Oc1c(C)nn(C)c(=O)c1-c1c(-c2cccc(OCc3ccccc3)c2)sc2ccc(F)cc12` [2-268], the “herbicidal effect on I: wild oat” value (wild oat [1]) was 0 (Herbicidal rate of 5% or less (almost no effect)), the “I: wild oat, herbicidal effect (criteria 0-5)” value (wild oat [2]; [24]) was 0 (Herbicidal rate of 5% or less (almost no effect)) and the “herbicidal effect on D: Chinese sprangletop” value (Chinese sprangletop; [25]) was 3 (Herbicidal rate of 40% or more and less than 70%). The “herbicidal effect on N: redroot pigweed” value (redroot pigweed [3]) was 0 (Herbicidal rate of 5% or less (almost no effect)), the “N: redroot pigweed, herbicidal effect (criteria 0-5)” value (redroot pigweed [4]; [24]) was 3 (Herbicidal rate of 40% or more and less than 70%) and the “L: windgrass, herbicidal effect (criteria 0-5)” value (windgrass [5]; [24]) was 1 (Herbicidal rate of 5% or more and less than 20%). For the same compound, the “H: barnyard grass, herbicidal effect (criteria 0-5)” value (barnyard grass [6]; [24]) was 4 (Herbicidal rate of 70% or more and less than 90%), the “herbicidal effect on O: lambsquarters” value (lambsquarters [7]) was 0 (Herbicidal rate of 5% or less (almost no effect)) and the “F: southern crabgrass, herbicidal effect (criteria 0-5)” value (southern crabgrass [8]; [24]) was 1 (Herbicidal rate of 5% or more and less than 20%). For the same compound, the “herbicidal effect on M: velvetleaf” value (velvetleaf [9]) was 0 (Herbicidal rate of 5% or less (almost no effect)), the “herbicidal effect on L: windgrass” value (windgrass [10]) was 0 (Herbicidal rate of 5% or less (almost no effect)) and the “herbicidal effect on J: blackgrass” value (blackgrass [11]) was 0 (Herbicidal rate of 5% or less (almost no effect)). For the same compound, the “K: Italian ryegrass, herbicidal effect (criteria 0-5)” value (Italian ryegrass [12]; [24]) was 2 (Herbicidal rate of 20% or more and less than 40%), the “herbicidal effect on F: southern crabgrass” value (southern crabgrass [13]) was 0 (Herbicidal rate of 5% or less (almost no effect)) and the “herbicidal effect on H: barnyard grass” value (barnyard grass [14]) was 0 (Herbicidal rate of 5% or less (almost no effect)). The “herbicidal effect on P: chickweed” value (chickweed [15]) was 0 (Herbicidal rate of 5% or less (almost no effect)), the “R: persian speedwell, herbicidal effect (criteria 0-5)” value (persian speedwell; [24]) was 4 (Herbicidal rate of 70% or more and less than 90%) and the “herbicidal effect on E: rice flat sedge” value (rice flat sedge; [25]) was 3 (Herbicidal rate of 40% or more and less than 70%). The “herbicidal effect on K: Italian ryegrass” value (Italian ryegrass [16]) was 3 (Herbicidal rate of 40% or more and less than 70%), the “herbicidal effect on H: barnyard grass” value (barnyard grass [17]; [25]) was 4 (Herbicidal rate of 70% or more and less than 90%) and the “G: green foxtail, herbicidal effect (criteria 0-5)” value (green foxtail [18]; [24]) was 4 (Herbicidal rate of 70% or more and less than 90%). For the same compound, the “P: chickweed, herbicidal effect (criteria 0-5)” value (chickweed [19]; [24]) was 5 (Herbicidal rate of 90% or more (almost completely withered)), the “O: lambsquarters, herbicidal effect (criteria 0-5)” value (lambsquarters [20]; [24]) was 3 (Herbicidal rate of 40% or more and less than 70%) and the “herbicidal effect on G: green foxtail” value (green foxtail [21]) was 0 (Herbicidal rate of 5% or less (almost no effect)). For the same compound, the “M: velvetleaf, herbicidal effect (criteria 0-5)” value (velvetleaf [22]; [24]) was 1 (Herbicidal rate of 5% or more and less than 20%).
With `CCCC(=O)Oc1c(C)nn(C)c(=O)c1-c1c(-c2cccc(SCC)c2)sc2c(Cl)cccc12` [4-093] the “Herbicidal effect by foliage application, I: wild oat” value (wild oat [2]; [26]) was 1 (Herbicidal rate of 5% or more and less than 20%), the “herbicidal effect on Chinese sprangletop (D)” value (Chinese sprangletop; 320 g/ha) was 4 (Herbicidal rate of 70% or more and less than 90%) and the “Herbicidal effect by foliage application, N: redroot pigweed” value (redroot pigweed [4]; [26]) was 3 (Herbicidal rate of 40% or more and less than 70%). For the same compound, the “Herbicidal effect by foliage application, L: windgrass” value (windgrass [5]; [26]) was 0 (Herbicidal rate of 5% or less (almost no effect)), the “Herbicidal effect by foliage application, H: barnyard grass” value (barnyard grass [6]; [26]) was 0 (Herbicidal rate of 5% or less (almost no effect)) and the “Herbicidal effect by foliage application, F: southern crabgrass” value (southern crabgrass [8]; [26]) was 0 (Herbicidal rate of 5% or less (almost no effect)). For the same compound, the “Herbicidal effect by foliage application, J: blackgrass” value (blackgrass [23]) was 0 (Herbicidal rate of 5% or less (almost no effect)), the “Herbicidal effect by foliage application, K: Italian ryegrass” value (Italian ryegrass [12]; [26]) was 0 (Herbicidal rate of 5% or less (almost no effect)) and the “Herbicidal effect by foliage application, R: persian speedwell” value (persian speedwell; [26]) was 3 (Herbicidal rate of 40% or more and less than 70%). The “herbicidal effect on rice flat sedge (E)” value (rice flat sedge; 320 g/ha) was 4 (Herbicidal rate of 70% or more and less than 90%), the “herbicidal effect on barnyard grass (H)” value (barnyard grass [17]; 320 g/ha) was 5 (Herbicidal rate of 90% or more (almost completely withered)) and the “Herbicidal effect by foliage application, G: green foxtail” value (green foxtail [18]; [26]) was 2 (Herbicidal rate of 20% or more and less than 40%). The “Herbicidal effect by foliage application, P: chickweed” value (chickweed [19]; [26]) was 1 (Herbicidal rate of 5% or more and less than 20%), the “Herbicidal effect by foliage application, O: lambsquarters” value (lambsquarters [20]; [26]) was 1 (Herbicidal rate of 5% or more and less than 20%) and the “Herbicidal effect by foliage application, M: velvetleaf” value (velvetleaf [22]; [26]) was 3 (Herbicidal rate of 40% or more and less than 70%).
